Measurements reported in ChEMBL document CHEMBL1141309, “Isoechinulin-type alkaloids, variecolorins A-L, from halotolerant Aspergillus variecolor” (J Nat Prod, 2007).

How the values were obtained:
[1] = DPPH radical scavenging activity; type: functional
[2] = Cytotoxicity against human […] cells after 24 hrs by SRB assay; type: functional, cell-based
HL-60 = experiment: Cytotoxicity against human HL60 cells after 72 hrs by MTT assay; type: functional, cell-based; details: HL-60, 72 h
Bel-7402 = experiment: Cytotoxicity against human BEL-7402 cells after 24 hrs by SRB assay; type: functional, cell-based; details: Bel-7402, 24 h
P388 = experiment: Cytotoxicity against mouse P388 cells after 72 hrs by MTT assay; type: functional, cell-based; details: P388, 72 h

| Compound | IC50 [1] | IC50 [2] | IC50 (HL-60) | IC50 (Bel-7402) | IC50 (P388) |
| --- | --- | --- | --- | --- | --- |
| O=C1O[C@H]([C@@H](O)CO)C(O)=C1O [ASCORBIC ACID] | 22 µM |  |  |  |  |
| C=CC(C)(C)c1[nH]c2c(CC=C(C)C)cc(CC=C(C)C)cc2c1C[C@@H]1NC(=O)[C@H](C)NC1=O [ECHINULIN] | 569 µM |  |  |  |  |
| C=CC(C)(C)c1[nH]c2ccc(CC=C(C)C)cc2c1/C=C1\NC(=O)[C@H](C)NC1=O [ISOECHINULIN A] | 98 µM |  |  |  |  |
| C=CC(C)(C)c1[nH]c2ccccc2c1/C=c1\[nH]c(=O)c(=C)[nH]c1=O [NEOECHINULIN B] | 65 µM |  |  |  |  |
| CC(=O)O[C@H]1C(=O)[C@@]2(C)[C@H]([C@H](OC(=O)c3ccccc3)[C@]3(O)C[C@H](OC(=O)[C@H](O)[C@@H](NC(=O)c4ccccc4)c4ccccc4)C(C)=C1C3(C)C)[C@]1(OC(C)=O)CO[C@@H]1C[C@@H]2O [PACLITAXEL] |  | 0.93 µM | 0.93 µM | 0.93 µM | 0.93 µM |
| C=CC(C)(C)c1[nH]c2ccccc2c1C[C@@H]1NC(=O)[C@H](C)NC1=O [PREECHINULIN] | 1000 µM |  |  |  |  |
| C=CC(C)(C)c1[nH]c2ccc(CC=C(C)C)cc2c1C[C@@H]1NC(=O)[C@H](C)NC1=O [TARDIOXOPIPERAZINE A] | 912 µM |  |  |  |  |
| C=CC(C)(C)c1[nH]c2c(CC=C(C)C)cccc2c1C[C@@H]1NC(=O)[C@H](C)NC1=O [TARDIOXOPIPERAZINE B] | 899 µM |  |  |  |  |
| C=CC(C)(C)c1[nH]c2ccc(C[C@@H](O)C(C)(C)Cl)cc2c1/C=C1\NC(=O)[C@H](C)NC1=O [VARIECOLORIN A] | 79 µM | > 50 µM | > 50 µM | > 50 µM | > 50 µM |
| C=CC(C)(C)c1[nH]c2ccc(C[C@@H](Cl)C(C)(C)O)cc2c1/C=C1\NC(=O)[C@H](C)NC1=O [VARIECOLORIN B] | 97 µM | > 50 µM | > 50 µM | > 50 µM | > 50 µM |
| C=CC(C)(C)c1[nH]c2ccc(C[C@@H](O)C(=C)C)cc2c1/C=C1\NC(=O)[C@H](C)NC1=O [VARIECOLORIN C] | 75 µM | > 50 µM | > 50 µM | > 50 µM | > 50 µM |
| C=CC(C)(C)c1[nH]c2ccc(C[C@H]3OC(C)(C)OC3(C)C)cc2c1/C=C1\NC(=O)[C@H](C)NC1=O [VARIECOLORIN D] | 88 µM | > 50 µM | > 50 µM | > 50 µM | > 50 µM |

Now from value to compound, other results behind:

| IC50 [1] | Compound | IC50 [2] | IC50 (HL-60) | IC50 (Bel-7402) | IC50 (P388) |
| --- | --- | --- | --- | --- | --- |
| 79 µM | C=CC(C)(C)c1[nH]c2ccc(CC(=O)C(C)C)cc2c1/C=C1\NC(=O)[C@H](C)NC1=O [VARIECOLORIN E] | > 50 µM | > 50 µM | > 50 µM | > 50 µM |
| 77 µM | C=CC(C)(C)c1[nH]c2c(C[C@@H](O)C(C)(C)Cl)cccc2c1/C=C1\NC(=O)[C@H](C)NC1=O [VARIECOLORIN F] | > 50 µM | > 50 µM | > 50 µM | > 50 µM |
| 86 µM | C=CC(C)(C)c1[nH]c2c(CC=C(C)C)cccc2c1/C=C1\NC(=O)[C@H](C)NC1=O [VARIECOLORIN G] | > 50 µM | > 50 µM | > 50 µM | > 50 µM |
| 99 µM | C=CC(C)(C)c1[nH]c2ccccc2c1/C=C1\NC(=O)C(C)(OC)NC1=O (stereo unspecified) [VARIECOLORIN H] | > 50 µM | > 50 µM | > 50 µM | > 50 µM |
| 79 µM | C=CC(C)(C)c1[nH]c2ccc(CC=C(C)C)cc2c1/C=C1\NC(=O)C(C)(OC)NC1=O (stereo unspecified) [VARIECOLORIN I] | > 50 µM | > 50 µM | > 50 µM | > 50 µM |
| 102 µM | C=CC(C)(C)c1[nH]c2ccc(CC=C(C)C)cc2c1/C=C1\NC(=O)C(=O)NC1=O [VARIECOLORIN J] | > 50 µM | > 50 µM | > 50 µM | > 50 µM |
| 89 µM | C=CC(C)(C)c1[nH]c2cc3c(cc2c1/C=C1\NC(=O)[C@H](C)NC1=O)C[C@H](C(C)(C)O)OC3(C)C [VARIECOLORIN K] | > 50 µM | > 50 µM | > 50 µM | > 50 µM |
| 623 µM | C=CC(C)(C)c1[nH]c2ccc(CC=C(C)C)c(CC=C(C)C)c2c1C[C@@H]1NC(=O)[C@H](C)NC1=O [VARIECOLORIN L] | > 50 µM | > 50 µM | > 50 µM | > 50 µM |
